Laboratory results as given in patent publication US5750567A, “Farnesyl transferase inhibitors, preparation thereof and pharmaceutical compositions containing same” (Phone-Poulenc Rorer SA., priority 1995, dated 1998).
Counter-ions that a name gives are not always drawn.

Legend:
[1] = tested on: farnesylation of the Ras protein in THAC line (CCL 39 cells transfected with activated Ha-Ras); assay: activity against cells: inhibition of farnesylation of the Ras protein in THAC cells (Western blot); format: cell-based; details: CCL39, 24 hours at 37° C.
Procedure: The activity against cells can be determined in the following way:
The cell line is the THAC line (CCL 39 cells transfected with activated Ha-Ras) according to K. Seuwen et al., EMBO J., 7(1) 161-168 (1988). The cells are cultured in Petri dishes with a diameter of 6 cm containing a DMEM medium, 5% foetal calf serum and 1% G418.
After culturing for 24 hours, the culture medium is changed (with or without the serum).and the product to be studied is added in solution in dimethylformamide (DMF), in the presence or in the absence of DTT (final concentrations of 0.5% in DMF and 0.1 mM in DTT). After culturing for 24 hours at 37° C., the cells are lysed in 1 cm^3 of lysis buffer (20 mM Tris, HCl, 1% Triton X114, 5 mM MgCl2, 7 mM DTT, 150 mM NaCl, pH=7.4). The lysates are clarified by centrifuging at 4000 revolutions/minute for 10 minutes. […] The radioactivity of the bands corresponding to farnesylated Ras and to non-farnesylated Ras makes it possible to determine the percentage of inhibition of farnesylation of the Ras protein.

[2] = target: T1, human farnesyl transferase (Homo sapiens, UniProt P49354+P49356); assay: inhibition of farnesyl transferase (transfer of [3H]farnesyl from [3H]FPP to p21 H-Ras); format: biochemical; details: p21 H-Ras substrate, 20 minutes at 37° C.; 9 concentrations; read-out: Inhibitory activity IC50
T1 construct: human farnesyl transferase purified from THP1 cell cultures; endogenous in cells; host or cells: THP1 cells (enzyme purified from the cultures)
Procedure: Farnesyl transferase activity is determined by the quantity of [^3 H]farnesyl transferred from [^3 H]farnesyl pyrophosphate [[^3 H]FPP) to the p21 H-Ras protein. The standard reaction mixture is composed, for a final volume of 60 μl, of 50 mM Tris-HCl, 5 mM MgCl2, 5 mM dithiotreitol, 0.2% octyl β-D-glucopyranoside, 200 picomol p21 H-ras, 4.5 picomol [^3 H]FPP (activity 61000 dpm/picomol).
Reaction is initiated by adding approximately 5 ng of human farnesyl transferase purified from THP1 cell cultures. After incubation for 20 minutes at 37° C. in a microtitration plate containing 96 1-cm^3 wells per plate (Titer Plate®, Beckman), the reaction is stopped by adding 0.4 cm^3 of 0.1% SDS in methanol at 0° C. The mixture is then treated with 0.4 cm^3 of 30% trichloroacetic acid (TCA) in methanol. The plates are left in ice for 1 hour. […] The membranes are dried in a microwave oven, then impregnated with scintillation medium by melting of Meltilex® (Pharmacia) under hot air, and lastly counted in cpm in a β-Plate counter® (LKB). […]
The percentage inhibition values are obtained by comparison of the tests with and without inhibitor after deduction of blanks, the IC50 values being measured on the basis of the inhibitions obtained with 9 different concentrations using Enzfitter® or Grafit® software.

Row | IC50 [2] [µM] | Structure (SMILES) | inhibition at 50 µM ([1]; 50 μM) [%] | inhibition at 10 µM ([1]; 10 μM) [%]
1 | 0.405 | CSCC[C@H](NC(=O)C1CCCc2c(NC[C@@H](N)CS)cccc21)C(=O)O (stereo partly drawn) [Example 2, trifluoroacetate of N-[5-(2(R)-amino-3-mercaptopropylamino)-1,2,3,4-tetrahydronaphthyl-1(R,S)-carbonyl]-(L)-methionine] | 50 | –
2 | 0.015 | COC(=O)[C@H](CCSC)NC(=O)C1CCCc2c(NC[C@@H](N)CS)cccc21 (stereo partly drawn) [Example 1, trifluoroacetate of the methyl ester of N-[5-(2(R)-amino-3-mercapto-propylamino)-1,2,3,4-tetrahydronaphthyl-1(R,S)-carbonyl]-(L)-methionine] | – | > 10
